The values below come from ChEMBL document CHEMBL1201862, “PubChem BioAssay data set” (2004).

Test systems include RPMI-8226; SK-MEL-28; SNB-75; 786-0; EKVX; HT-29; UACC-62; UO-31; SF-268; MDA-MB-435; BT-549; DU-145; MOLT-4; OVCAR-5; HL-60; PC-3; Malme-3M; RXF 393; NCI-H522.
What all share (test): growth of human tumour cells (NCI), 48 h

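In this assay, cells in 96-well plates receive the compound at five concentrations for 48 hours. Endpoints are linearly interpolated between the surrounding concentrations. Here, GI50 denotes the concentration required for 50% inhibition of growth.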 Calls of active or inactive are those of the source. Cut-off read from the data, not from the text of the source: active = GI50 up to about 1.1 µM and inactive = higher.

In the case of `COc1cc(/C=C2\N=C(c3ccccc3)N(/N=C/c3cc4cc(C)ccc4nc3Cl)C2=O)cc(OC)c1OC`, the GI50 in the test on RPMI-8226 was 20.5 µM (inactive); in the test on SK-MEL-28 it was 91.6 µM (inactive); in the test with SNB-75, 17.1 µM (inactive); with 786-0, 60.4 µM (inactive); with EKVX it was 54.5 µM (inactive); with HT-29, 38.4 µM (inactive). In addition, the GI50 in the test on UACC-62 is 32.1 µM (inactive); with UO-31, 48.6 µM (inactive); with SF-268 it was 35.6 µM (inactive); with MDA-MB-435, 15.8 µM (inactive); in the test on BT-549, 52.2 µM (inactive); with DU-145 it was 30.4 µM (inactive). The GI50 in the test with MOLT-4 is 20.6 µM (inactive); in the test on OVCAR-5, > 100 µM (inactive); in the test on HL-60, 10.5 µM (inactive); in the test on PC-3, 18.1 µM (inactive).
Consider `CC1CN=C(NCc2ccccc2)S1` (stereo not drawn), for which the GI50 with RPMI-8226, in the test with SK-MEL-28, in the test on SNB-75, with EKVX, in the test with HT-29 and in the test with UACC-62 was > 100 µM (inactive) throughout. Besides, the GI50 with UO-31 was > 100 µM (inactive); in the test on SF-268 it was > 100 µM (inactive); with MDA-MB-435, 39.1 µM (inactive); with BT-549, > 100 µM (inactive); with Malme-3M, > 100 µM (inactive); in the test on RXF 393 it was 4.17 µM (inactive). The GI50 with DU-145 is > 100 µM (inactive); in the test with MOLT-4, > 100 µM (inactive); with OVCAR-5, > 100 µM (inactive); in the test with HL-60, 65 µM (inactive); in the test on NCI-H522, > 100 µM (inactive).
Regarding `[O-][S+](Nc1ccccc1)c1ccc(-c2ccccc2)cc1` (stereo not drawn), the GI50 is > 100 µM (inactive) in the test with RPMI-8226; > 100 µM (inactive) with SK-MEL-28; > 100 µM (inactive) in the test with 786-0; > 100 µM (inactive) in the test on EKVX; > 100 µM (inactive) in the test with HT-29; 47.4 µM (inactive) in the test on UACC-62. Besides, the GI50 in the test with UO-31 is > 100 µM (inactive); in the test on SF-268 it was > 100 µM (inactive); in the test with MDA-MB-435 it was > 100 µM (inactive); in the test with BT-549, 8.57 µM (inactive); in the test with Malme-3M, > 100 µM (inactive); in the test on DU-145, > 100 µM (inactive). Also, the GI50 in the test with MOLT-4, in the test with OVCAR-5, in the test on HL-60 and in the test with NCI-H522 was > 100 µM (inactive) throughout.
In the case of `CC(CO)CCNc1ncnc2c1ncn2CCC#N` (stereo not drawn), the GI50 in the test with RPMI-8226, in the test with SK-MEL-28, in the test with SNB-75, in the test on 786-0, in the test on EKVX and in the test on HT-29 was > 100 µM (inactive) in each case. For the same compound, the GI50 with UACC-62, with UO-31, with SF-268, in the test on MDA-MB-435, in the test on Malme-3M and in the test with RXF 393 was > 100 µM (inactive) throughout. Besides, the GI50 in the test on DU-145, with MOLT-4, in the test with OVCAR-5, in the test on HL-60, with PC-3 and in the test with NCI-H522 was > 100 µM (inactive) each time.
Consider `COc1ccc2nc3ccc(OC)cc3c(S(=O)(=O)Cc3ccc([N+](=O)[O-])cc3)c2c1`, for which the GI50 is > 100 µM (inactive) with SK-MEL-28; 38.7 µM (inactive) with SNB-75; 66.4 µM (inactive) in the test with 786-0; > 100 µM (inactive) with EKVX; 68.7 µM (inactive) in the test on HT-29; > 100 µM (inactive) with UACC-62. In addition, the GI50 is > 100 µM (inactive) in the test with UO-31; 85.5 µM (inactive) in the test on SF-268; > 100 µM (inactive) with MDA-MB-435; > 100 µM (inactive) with Malme-3M; > 100 µM (inactive) with RXF 393; > 100 µM (inactive) in the test with DU-145. For the same compound, the GI50 with MOLT-4, with OVCAR-5, with HL-60, in the test with PC-3 and with NCI-H522 was > 100 µM (inactive) each time.
For `COc1ccc(CC2C(=O)NC(C)C(=O)N(C)C3Cc4ccc(cc4)Oc4cc(ccc4O)CC(C(=O)NC(C)C(=O)NC(C)C(=O)N2C)N(C)C3=O)cc1` (stereo not drawn), the GI50 was 0.0175 µM (active) in the test with RPMI-8226; 0.0175 µM (active) in the test on SK-MEL-28; 0.0175 µM (active) with SNB-75; < 0.0001 µM (active) with 786-0; 0.0175 µM (active) with EKVX; 0.0355 µM (active) in the test with HT-29. For the same compound, the GI50 is 0.0175 µM (active) in the test on UACC-62; 0.857 µM (active) in the test on UO-31; < 0.0001 µM (active) with MDA-MB-435; 0.0175 µM (active) in the test on Malme-3M; 0.0175 µM (active) with RXF 393; < 0.0001 µM (active) in the test on DU-145. For the same compound, the GI50 is 0.0175 µM (active) in the test on MOLT-4, 0.0175 µM (active) with HL-60 and < 0.0001 µM (active) in the test with PC-3.
On to `c1ccc2c(c1)nnn2CN1CCOCC1`, for which the GI50 in the test on SK-MEL-28 was > 100 µM (inactive); with 786-0, > 100 µM (inactive); with EKVX, > 100 µM (inactive); in the test with HT-29 it was > 100 µM (inactive); in the test with UACC-62 it was 58.3 µM (inactive); in the test on UO-31, > 100 µM (inactive). Besides, the GI50 with SF-268 is 63.8 µM (inactive); with MDA-MB-435 it was > 100 µM (inactive); in the test on BT-549 it was > 100 µM (inactive); with Malme-3M, 41.8 µM (inactive); in the test with RXF 393, 48.5 µM (inactive); in the test on MOLT-4, 35.6 µM (inactive). Besides, the GI50 was > 100 µM (inactive) with OVCAR-5, 29.2 µM (inactive) in the test with HL-60, > 100 µM (inactive) with PC-3 and > 100 µM (inactive) in the test on NCI-H522.
In the case of `CCC1CCCCN1CC(C(C)=O)C(c1ccccc1)c1c(O)c2ccccc2oc1=O` (stereo not drawn), the GI50 in the test on RPMI-8226 is 69.5 µM (inactive); in the test on SK-MEL-28 it was > 100 µM (inactive); in the test on SNB-75, 6.87 µM (inactive); with 786-0, > 100 µM (inactive); with EKVX, > 100 µM (inactive); with HT-29 it was > 100 µM (inactive). For the same compound, the GI50 in the test with UACC-62 was 82.2 µM (inactive); in the test with UO-31, > 100 µM (inactive); in the test on SF-268, > 100 µM (inactive); in the test with Malme-3M, > 100 µM (inactive); in the test with RXF 393, > 100 µM (inactive); in the test on MOLT-4 it was > 100 µM (inactive). Besides, the GI50 in the test with OVCAR-5 is 50.7 µM (inactive); with HL-60, 76.4 µM (inactive); in the test on NCI-H522 it was > 100 µM (inactive).
For `CC(C)(C)OC(=O)N1Cc2cc(O)ccc2C[C@H]1C(=O)O`, the GI50 in the test with SK-MEL-28, with SNB-75, in the test with 786-0, in the test on EKVX, in the test on HT-29 and with UACC-62 was > 100 µM (inactive) in each case. Moreover, the GI50 in the test on SF-268, in the test with MDA-MB-435, in the test on Malme-3M, in the test with RXF 393, with DU-145 and in the test on MOLT-4 was > 100 µM (inactive) each time. Moreover, the GI50 in the test on OVCAR-5 was > 100 µM (inactive); with HL-60, 0.137 µM (active); in the test on PC-3 it was > 100 µM (inactive); in the test with NCI-H522, > 100 µM (inactive).
As for `CC1=[N+]([O-])C(C)(C)N(O)C1(C)C`, the GI50 in the test on RPMI-8226, in the test with SK-MEL-28, in the test on SNB-75, in the test on 786-0, in the test on EKVX and in the test on HT-29 was > 100 µM (inactive) in each case. In addition, the GI50 with UACC-62, with UO-31, in the test with SF-268, in the test with MDA-MB-435, in the test on Malme-3M and with RXF 393 was > 100 µM (inactive) each time. The GI50 with DU-145, with MOLT-4, with OVCAR-5, in the test on HL-60, in the test on PC-3 and in the test with NCI-H522 was > 100 µM (inactive) throughout.
Take `O=C(NC1CCCCC1)c1cc2ccccc2cc1O`: the GI50 with RPMI-8226 was 17.7 µM (inactive); in the test with SK-MEL-28 it was 49.3 µM (inactive); in the test on SNB-75, 45.5 µM (inactive); in the test on 786-0 it was 26.3 µM (inactive); with EKVX it was 34.1 µM (inactive); in the test on HT-29, 20.4 µM (inactive). Further, the GI50 in the test with UACC-62 was 27 µM (inactive); with UO-31, 32.4 µM (inactive); with SF-268, 46.1 µM (inactive); in the test with MDA-MB-435 it was 29.2 µM (inactive); in the test with RXF 393, 30.5 µM (inactive); in the test with DU-145, 43.2 µM (inactive). Besides, the GI50 was 22.6 µM (inactive) with HL-60 and 28.8 µM (inactive) in the test on PC-3.
Turning to `O=C(O)c1ccccn1` [2-PICOLINIC ACID], the GI50 with RPMI-8226, in the test with SK-MEL-28, in the test with SNB-75, in the test on 786-0, in the test with EKVX and with HT-29 was > 100 µM (inactive) each time. Further, the GI50 in the test on UACC-62, with UO-31, in the test on SF-268, in the test with MDA-MB-435, in the test with BT-549 and in the test on RXF 393 was > 100 µM (inactive) in each case. The GI50 with MOLT-4, with OVCAR-5 and with PC-3 was > 100 µM (inactive) each time.
